From patent US7883713B2, “Topical application of thiazolyl amides” (AiCuris GmbH & Co. KG, priority 2001, dated 2011)

Key:
[1] = tested on: HSV-2; experiment: Zosteriform spread model, percutaneous HSV-2 infection; assay type: in vivo, hairless mice (C3H/TifBom-hr); details: for efficacy of topical treatment, in words: 2% by weight suspension in 30% isopropyl myristate, 70% ethanol; for Pathology index (cumulative): day 0 to day 21, 10 animals
Method: To form a 2% by weight suspension, the active ingredients are mixed with 30% by weight isopropyl myristate/70% by weight of ethanol and sonified in a glass tube in an ultrasonic bath at 15° C. for 15 min.
To produce the ointment preparation, wool alcohol ointment complying with DAB 9 is employed. The active ingredient is suspended in a molten mixture of 0.5 parts by weight of cetyl stearyl alcohol (quality complying with DAB 9), 6 parts by weight of wool wax alcohol (quality complying with DAB 9) and 93.5 parts by weight of white petrolatum (quality complying with DAB 9). The mixture is stirred while cooling to room temperature (about 21° C.).
To produce a so-called “PEG isogel” preparation, the active ingredient is suspended or dissolved in the melt a mixture of lower molecular weight polyethylene glycol (PEG) and higher molecular weight PEG.
A further gel preparation employed is a polyacrylate gel (so-called “carbogel”) which consists of 1 part by weight of Carbopol 974 P NF (manufacturer BF Goodrich, USA), […], 5 part by weight of 5% by weight (m/m) sodium hydroxide solution and 89 parts by weight of water. The preparation is produced by rubbing the Carbopol with the isopropanol, adding the active ingredient, and dispersing the mixture in water. The sodium hydroxide solution is added stepwise with stirring. A gel is formed.
6-week old female hairless mice (C3H/TifBom-hr) are purchased from a commercial breeder (M&B A/S, Denmark) and infected with HSV one week later. The animals are anesthetized with diethyl ether (Merck) in a leakproof glass vessel. For the dermal infection, the skin on the right flank or in the neck region of the animal is scratched 10× crosswise with a sterile needle (0.6×25 mm). The skin pretreated in this way is inoculated with 10 μl of virus suspension (1×10^6 pfu HSV-2G; 1.5×10^6 p fu HSV-lwalki). The animals are inspected each day, and the pathology index is determined by means of the following scale: 0: no visible signs of infection, 1: blistering, 2: slight spread in the dermatome (shingles), 3: large areas affected (shingles), 4: confluent shingles bands, 5: paralysis of the extremities, 6: death. The particular pathology index of the group on the particular day is calculated by forming the average for all the animals in the group. The cumulative pathology index is calculated by totalling the pathology indices for individual days. The infection leads to death of 90-100% of the untreated animals due to a generalized infection with prominent central nervous symptoms an average of between 5 and 8 days. Moribund animals are euthanized. […]

[2] = tested on: HSV-2; experiment: Ocular herpes model, HSV-2 infection; assay type: in vivo, mice (BALB/cABom); details: for number of survivors of 10 infected animals: HSV-2, day 16 after infection; for number of survivors of 10 infected animals / Pathology index HSV-2 infection (cumulative): topical ophthalmic 2% by weight suspension 5x a day, day 0 to day 4; for Pathology index HSV-2 infection (cumulative): day 0 to day 16, 10 animals; for efficacy of topical treatment (eye drops), in words: ocular HSV infection, efficacy applies to HSV-2
Method: (§1) To form a 2% by weight suspension, the active ingredients are mixed with Liquifilm eyedrops (Allergan, Ettlingen, Germany) (1 ml containing polyvinyl alcohol 14 mg, and as excipient chlorobutanol ½ H2O 5.25 mg, sodium chloride) and sonified in a glass tube in an ultrasonic bath at 15° C. for 15 min.
(§2) 6-week old female mice, strain BALB/cABom (weight 19 g) are purchased from a commercial breeder (M&B A/S, Denmark) and infected with HSV one week later. The animals are anesthetized in a leakproof glass vessel with diethyl ether (Merck). For the ocular infection, the cornea of the right eye is lightly scratched three times horizontally and three times vertically with a sterile needle (0.4×20 mm). The cornea pretreated in this way is inoculated with 5 μl of virus suspension (5×10^7 pfu HSV-2G, 7.5×10^7 pfu HSV-lwalki). The infected animals are checked each day and examined for signs of an HSV infection (blepharitis, keratitis, encephalitis). The pathology index is set at 1 for affected animals, and the pathology index is set at 0 for symptom-free animals. The particular pathology index of the group on the particular day is calculated by summation for all the animals in the group. The cumulative pathology index is calculated by totalling the pathology indices on individual days. The infection leads to the death of 90-100% of untreated animals due to a generalized infection with prominent central nervous symptoms an average of between 5 and 8 days. Moribund animals are euthanized. The treatment takes place starting 3 h after the infection 5× a day for 5 days by instilling 5 μl of a 2% by weight active ingredient suspension in Liquifilm© eye drops (Allergan, Ettlingen, Germany) (1 ml containing polyvinyl alcohol 14 mg, and as excipient chlorobutanol ½ H2O 5.25 mg, sodium chloride) into the infected right eye of the animal.

[3] = tested on: HSV-1; experiment: Ocular herpes model, HSV-1 infection; assay type: in vivo, mice (BALB/cABom); details: for number of survivors of 10 infected animals: HSV-1, day 16 after infection; for number of survivors of 10 infected animals / Pathology index HSV-1 infection (cumulative): topical ophthalmic 2% by weight suspension 5x a day, day 0 to day 4; for Pathology index HSV-1 infection (cumulative): day 0 to day 16, 10 animals; for efficacy of topical treatment (eye drops), in words: ocular HSV infection, efficacy applies to HSV-1
Method: as §1, §2

[4] = HSV-2, right flank, 2% by weight suspension in 30% isopropyl myristate/70% ethanol on skin 2x a day, day 0 to day 4

SMILES | efficacy of topical treatment, in words ([1]; HSV-2, right flank) | Pathology index (cumulative) [1, 4] | number of survivors of 10 infected animals [2] | Pathology index HSV-2 infection (cumulative) [2] | number of survivors of 10 infected animals [3] | Pathology index HSV-1 infection (cumulative) [3] | efficacy of topical treatment (eye drops), in words [2] | efficacy of topical treatment (eye drops), in words [3] | effect of short treatment on infection, in words ([1]; HSV-2G, neck region, 2% by weight PEG isogel 2x a day for 2 days (4 treatments)) | Pathology index (cumulative) ([1]; HSV-2G, neck region, 2% by weight PEG isogel on skin 2x a day, day 0 to day 1) | efficacy of topical treatment with various formulations, in words ([1]; HSV-2G, neck region, formulations with 3% by weight active ingredient)
Cc1nc(N(C)C(=O)Cc2ccc(-c3cccc(F)c3)cc2)sc1S(N)(=O)=O [N-[5-(aminosulfonyl)-4-methyl-1,3-thiazol-2-yl]-2-(3′-fluoro-1,1′-biphenyl-4-yl)-N-methylacetamide] | extensive efficacy | 0.3 | – | – | – | – | – | – | – | – | –
Nc1nc2c(ncn2COCCO)c(=O)[nH]1 [Aciclovir, reference compound] | – | – | 1 | 90 | 7 | 33 | – | – | – | – | –
Cc1nc(N(C)C(=O)Cc2ccc(-c3ccccc3)cc2)sc1S(N)(=O)=O [N-[5-Aminosulfonyl)-4-methyl-1,3-thiazol-2-yl]-2-[1,1′-biphenyl]-4-yl-N-methylacetamide] | extensive efficacy | 7.9 | – | – | – | – | – | – | – | – | –
Cc1nc(N(C)C(=O)Cc2ccc(-c3cc(F)ccc3F)cc2)sc1S(N)(=O)=O [N-[5-(Aminosulfonyl)-4-methyl-1,3-thiazol-2-yl]-2-(2′,5′-difluoro-1,1′-biphenyl-4-yl)-N-methylacetamide] | – | – | 4 | 42 | 10 | 0 | extensive efficacy | extensive efficacy | – | – | –
Cc1nc(N(C)C(=O)Cc2ccc(-c3ccccn3)cc2)sc1S(N)(=O)=O [N-[5-(Aminosulfonyl)-4-methyl-1,3-thiazol-2-yl]-N-methyl-2-[4-(2-pyridyl)phenyl]acetamide] | extensive efficacy | 0.3 | 9 | 7 | 10 | 0 | extensive efficacy | extensive efficacy | completely suppressed | 0.3 | extensive efficacy
Cc1nc(N(C)C(=O)Cc2ccc(-c3ccccc3F)cc2)sc1S(N)(=O)=O [N-[5-(Aminosulfonyl)-4-methyl-1,3-thiazol-2-yl]-2-(2′-fluoro[1,1′-biphenyl]-4-yl)-N-methylacetamide] | extensive efficacy | 0.2 | – | – | – | – | – | – | – | – | –
